In ChEMBL document CHEMBL5550194, “Design and synthesis of phosphoryl-substituted steroidal pyridazines (Pho-STPYRs) as potent estrogen receptor alpha inhibitors: targeted treatment of hormone-dependent breast cancer cells” (RSC Med Chem, 2024):

Legend:
MDA-MB-231 = assay: Antiproliferative activity against human MDA-MB-231 cells assessed as inhibition of cell growth incubated for 72 hrs by MTT assay; assay type: functional, cell-based; details: MDA-MB-231, 72 h
MCF7 = assay: Antiproliferative activity against human MCF7 cells assessed as inhibition of cell growth incubated for 72 hrs by MTT assay; assay type: functional, cell-based; details: MCF7, 72 h

Structure (SMILES) | IC50 (MDA-MB-231) | IC50 (MCF7)
C[C@]12CCC(Cl)CC1=CC[C@@H]1[C@@H]2CC[C@]2(C)c3c(cnnc3P(=O)(Nc3ccccc3)Nc3ccccc3)C[C@@H]12 (some centres undefined) | > 25 µM | > 25 µM
C[C@]12CC[C@H](O)CC1=CC[C@@H]1[C@@H]2CC[C@]2(C)c3c(cnnc3P(=O)(Nc3ccccc3)Nc3ccccc3)C[C@@H]12 | > 25 µM | 18.5 µM
COc1ccc2c(c1)CC[C@@H]1[C@@H]2CC[C@]2(C)c3c(cnnc3P(=O)(c3ccccc3)c3ccccc3)C[C@@H]12 | 13.5 µM | 8.6 µM
C[C@]12CC[C@H]3[C@@H](CCC4Cc5c(cnnc5P(=O)(Nc5ccccc5)Nc5ccccc5)C[C@@]43C)[C@@H]1CC[C@@H]2O (some centres undefined) | 16.5 µM | 9.3 µM
CC/C(=C(\c1ccc(O)cc1)c1ccc(OCCN(C)C)cc1)c1ccccc1 [AFIMOXIFENE] | – | 5.2 µM
CC(=O)O[C@H]1CC[C@@]2(C)C(=CC[C@@H]3[C@@H]2CC[C@]2(C)c4c(cnnc4P(=O)(Nc4ccccc4)Nc4ccccc4)C[C@@H]32)C1 | > 25 µM | > 25 µM
CC(=O)O[C@H]1CC[C@@]2(C)C(=CC[C@@H]3[C@@H]2CC[C@]2(C)c4c(cnnc4P(=O)(c4ccccc4)c4ccccc4)C[C@@H]32)C1 | 17.7 µM | 14 µM
CC(C)(C)NP(=O)(NC(C)(C)C)c1nncc2c1[C@@]1(C)CC[C@H]3[C@@H](CC[C@H]4C[C@@H](O)CC[C@@]43C)[C@@H]1C2 | > 25 µM | > 25 µM
CC(C)(C)NP(=O)(NC(C)(C)C)c1nncc2c1[C@@]1(C)CC[C@H]3[C@@H](CC=C4CC(Cl)CC[C@@]43C)[C@@H]1C2 (some centres undefined) | 15.5 µM | 11.1 µM
C[C@]12CC[C@H](O)CC1=CC[C@@H]1[C@@H]2CC[C@]2(C)c3c(cnnc3P(=O)(c3ccccc3)c3ccccc3)C[C@@H]12 | 7.4 µM | 17.5 µM
C[C@]12CC[C@H](O)C[C@@H]1CC[C@@H]1[C@@H]2CC[C@]2(C)c3c(cnnc3P(=O)(Nc3ccccc3)Nc3ccccc3)C[C@@H]12 | > 25 µM | 17 µM
CC(C)(C)NP(=O)(NC(C)(C)C)c1nncc2c1[C@@]1(C)CC[C@H]3[C@@H](CC=C4C[C@@H](O)CC[C@@]43C)[C@@H]1C2 | > 25 µM | 24.7 µM
C[C@]12CC[C@H]3[C@@H](CCC4Cc5c(cnnc5P(=O)(c5ccccc5)c5ccccc5)C[C@@]43C)[C@@H]1CC[C@@H]2O (some centres undefined) | 8.9 µM | 7.1 µM
CC(C)(C)NP(=O)(NC(C)(C)C)c1nncc2c1[C@@]1(C)CC[C@@H]3c4ccc(O)cc4CC[C@H]3[C@@H]1C2 | > 25 µM | 22.6 µM
C[C@]12CC[C@@H]3c4ccc(O)cc4CC[C@H]3[C@@H]1Cc1cnnc(P(=O)(Nc3ccccc3)Nc3ccccc3)c12 | > 25 µM | > 25 µM
COc1ccc2c(c1)CC[C@@H]1[C@@H]2CC[C@]2(C)c3c(cnnc3P(=O)(NC(C)(C)C)NC(C)(C)C)C[C@@H]12 | 16.7 µM | 12.7 µM
CC(C)(C)NP(=O)(NC(C)(C)C)c1nncc2c1[C@@]1(C)CC[C@H]3[C@@H](CCC4=CC(=O)CC[C@@]43C)[C@@H]1C2 | 20.7 µM | 18.6 µM
COc1ccc2c(c1)CC[C@@H]1[C@@H]2CC[C@]2(C)c3c(cnnc3P(=O)(Nc3ccccc3)Nc3ccccc3)C[C@@H]12 | > 25 µM | > 25 µM
CC(=O)O[C@H]1CC[C@@]2(C)C(=CC[C@@H]3[C@@H]2CC[C@]2(C)c4c(cnnc4P(=O)(NC(C)(C)C)NC(C)(C)C)C[C@@H]32)C1 | > 25 µM | 16.4 µM
C[C@]12CC[C@@H]3c4ccc(O)cc4CC[C@H]3[C@@H]1Cc1cnnc(P(=O)(c3ccccc3)c3ccccc3)c12 | > 25 µM | > 25 µM
